The values that follow come from US11236112B2 (GENFLEET THERAPEUTICS (SHANGHAI) INC., priority 2017, dated 2022).

Data set [1] is described as follows: Solubility of different salt types in biological vehicle (SGF, FeSSIF, FaSSIF), HPLC. The class given is physicochemical. The note with it: 37° C.; for pH value: supernatant. The procedure: 1 ml of biological vehicle solution (FaSSIF, FeSSIF and SGF) was pipetted respectively into a 1.5-ml glass bottle, and then added to the above-mentioned solution at a gradient of 2 mg until 10 mg or the mixture was saturated. The mixture was prepared in 2 parts in parallel, and then shaken at 37° C. Samples were taken after 4 hours and 24 hours, respectively. The samples taken were centrifuged quickly, and the supernatant was measured for pH value and diluted with a diluent to a suitable multiple, and then the concentration was determined by HPLC.

Data set [2] can be described thus: High-temperature stability test (60° C., open container). The class given is physicochemical.
The nature of data set [3]: High-humidity stability test (40° C./75% humidity, open). The class given is physicochemical.
The nature of data set [4]: Hygroscopicity by dynamic vapor sorption (DVS). It counts as physicochemical. As to conditions: 25° C./80% RH. On the procedure:
In the present invention, the dynamic vapor sorption (DVS) is determined by using the following method: instrument model: SMS DVS Advantage dynamic vapor sorption instrument
Test condition: place 10-15 mg of sample in a DVS sample disk for testing.
The detailed DVS parameters are as follows: […]
balance: dm/dt=0.01%/min (minimum: 10 min; maximum: 180 min) drying: dry for 120 min at 0% RH
RH (%) test step range: 0%-90%-0%
The classification of hygroscopicity evaluation is as follows:
1. Experimental material: SMS DVS Advantage dynamic vapor sorption instrument
2. Experimental method: an appropriate amount of the crystal form B of the compound of formula (II) was placed in a DVS sample disk for DVS analysis.

The nature of data set [5]: Approximate solubility in pure water. The note with it: thermodynamic from solid, room temperature, 2 mg sample, read-out: Approximate solubility S. The class given is physicochemical. The procedure:
2 mg of the sample of each compound was weighed and added to a 1.5-ml glass vial, and a certain volume of pure water was added with a pipette, and ultrasonic solubilization was performed appropriately. The study was conducted at room temperature and tested for solubilization.

The target of data set [6] is T1, TGF-βRI (Homo sapiens, UniProt P36897).
T1 sequence (P36897 34-503): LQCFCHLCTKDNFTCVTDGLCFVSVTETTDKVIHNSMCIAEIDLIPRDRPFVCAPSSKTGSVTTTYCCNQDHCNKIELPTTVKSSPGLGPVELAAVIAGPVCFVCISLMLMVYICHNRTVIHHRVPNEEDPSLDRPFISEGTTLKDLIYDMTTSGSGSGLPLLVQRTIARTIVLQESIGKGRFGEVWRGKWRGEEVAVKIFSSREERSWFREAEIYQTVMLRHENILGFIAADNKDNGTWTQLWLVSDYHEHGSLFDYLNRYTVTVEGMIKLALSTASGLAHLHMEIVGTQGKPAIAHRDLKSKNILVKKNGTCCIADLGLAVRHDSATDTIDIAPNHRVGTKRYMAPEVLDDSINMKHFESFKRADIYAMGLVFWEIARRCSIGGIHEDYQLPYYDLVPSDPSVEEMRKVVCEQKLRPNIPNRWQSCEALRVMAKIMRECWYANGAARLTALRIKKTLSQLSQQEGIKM
The data set can be described thus: TGFβ-RI receptor binding activity screening in vitro (enzyme activity, IC50).

In data set [7] the test system is liver cancer patients. The note with it: phase 2 clinical trial, after treatment; cited from earlier work.

With `CS(=O)(=O)O.Cc1cccc(-c2nn3c(c2-c2ccc4ncnn4c2/C=C/C(N)=O)CCC3)n1`, the Concentration in data set [1] (FaSSIF, 4 hours) was determined as 5159 µg/mL; in data set [1] (FaSSIF, 24 hours) it was 3704 µg/mL; in data set [1] (FeSSIF, 4 hours), 852 µg/mL; in data set [1] (FeSSIF, 24 hours) it was 925 µg/mL; in data set [1] (SGF, 4 hours), 5103 µg/mL; in data set [1] (SGF, 24 hours), 5163 µg/mL. Also, the State result in data set [1] (FaSSIF, 4 hours) was “soluble”; in data set [1] (FaSSIF, 24 hours) it was “turbid”; in data set [1] (FeSSIF, 4 hours) it was “turbid”; in data set [1] (FeSSIF, 24 hours), “turbid”; in data set [1] (SGF, 4 hours), “soluble”; in data set [1] (SGF, 24 hours), “soluble”. In addition, the pH value in data set [1] (FaSSIF, 4 hours) is on record as 4.16; in data set [1] (FaSSIF, 24 hours), 3.71; in data set [1] (FeSSIF, 4 hours) it was 4.58; in data set [1] (FeSSIF, 24 hours) it was 4.60; in data set [1] (SGF, 4 hours), 2.08; in data set [1] (SGF, 24 hours), 2.14.
With `Cc1cccc(-c2nn3c(c2-c2ccc4ncnn4c2/C=C/C(N)=O)CCC3)n1`, the Content amounted to 99.0% in data set [2] (day 0); 97.5% in data set [2] (day 30); 100.0% in data set [2] (day 60); 99.9% in data set [2] (day 90); 99.0% in data set [3] (day 0); 100.6% in data set [3] (day 30). The Content is given as 101.1% in data set [3] (day 60) and 100.4% in data set [3] (day 90). Moreover, the “Study on crystal form” value in data set [2] (day 0), in data set [2] (day 30), in data set [2] (day 60) and in data set [2] (day 90) was “Crystal form A” throughout. Moreover, the Total impurities came to 0.57% in data set [2] (day 0); 0.56% in data set [2] (day 30); 0.58% in data set [2] (day 60); 0.55% in data set [2] (day 90); 0.57% in data set [3] (day 0); 0.57% in data set [3] (day 30). Further, the Total impurities in data set [3] (day 60) and in data set [3] (day 90) was 0.58% in each case. The “Stability under high temperature conditions (conclusion)” value in data set [2] (up to 90 days) is on record as “Conclusion: The high-temperature stability test shows that crystal form A of the compound of formula (I) has good stability under high temperature conditions”. In addition, in data set [3] (up to 90 days), the “Stability under high humidity conditions (conclusion)” value is “Conclusion: The high-humidity stability test shows that the crystal form A of the compound of formula (I) has good stability under high humidity conditions”.
On to `Cc1ccc(S(=O)(=O)O)cc1.Cc1cccc(-c2nn3c(c2-c2ccc4ncnn4c2/C=C/C(N)=O)CCC3)n1`, for which, in data set [4], the Classification of hygroscopicity result is reported as “slightly hygroscopic” and the “Hygroscopic weight gain ΔW” value is recorded as 0.673%.
In the case of `Cc1cccc(-c2nn3c(c2-c2ccc4ncnn4c2/C=C/C(N)=O)CCC3)n1` [Compound of formula (I)], the Concentration in data set [1] (FaSSIF, 4 hours) came out at 352 µg/mL; in data set [1] (FaSSIF, 24 hours) it was 421 µg/mL; in data set [1] (FeSSIF, 4 hours) it was 565 µg/mL; in data set [1] (FeSSIF, 24 hours), 637 µg/mL; in data set [1] (SGF, 4 hours), 1997 µg/mL; in data set [1] (SGF, 24 hours) it was 1994 µg/mL. Further, the State result in data set [1] (FaSSIF, 4 hours) is “turbid”; in data set [1] (FaSSIF, 24 hours) it was “turbid”; in data set [1] (FeSSIF, 4 hours) it was “turbid”; in data set [1] (FeSSIF, 24 hours), “turbid”; in data set [1] (SGF, 4 hours), “soluble”; in data set [1] (SGF, 24 hours), “soluble”. Also, the pH value is given as 6.45 in data set [1] (FaSSIF, 4 hours); 6.42 in data set [1] (FaSSIF, 24 hours); 4.97 in data set [1] (FeSSIF, 4 hours); 4.95 in data set [1] (FeSSIF, 24 hours); 2.37 in data set [1] (SGF, 4 hours); 2.43 in data set [1] (SGF, 24 hours). Moreover, in data set [5], the solubility – broadly, the dissolved amount per volume that the medium holds – is under 1.9 mg/mL. Further, the IC50 (commonly the concentration needed to halve the response being measured) in data set [6] is 40 nM.
Take `Cc1ccc(S(=O)(=O)O)cc1.Cc1cccc(-c2nn3c(c2-c2ccc4ncnn4c2/C=C/C(N)=O)CCC3)n1` [Compound of formula (II)]: the Concentration in data set [1] (FaSSIF, 4 hours) was determined as 10150 µg/mL; in data set [1] (FaSSIF, 24 hours), 10720 µg/mL; in data set [1] (FeSSIF, 4 hours) it was 10840 µg/mL; in data set [1] (FeSSIF, 24 hours) it was 10580 µg/mL; in data set [1] (SGF, 4 hours), 1610 µg/mL; in data set [1] (SGF, 24 hours), 1470 µg/mL. Besides, the State result in data set [1] (FaSSIF, 4 hours) is given as “clear”; in data set [1] (FaSSIF, 24 hours) it was “clear”; in data set [1] (FeSSIF, 4 hours) it was “clear”; in data set [1] (FeSSIF, 24 hours) it was “clear”; in data set [1] (SGF, 4 hours), “Suspension”; in data set [1] (SGF, 24 hours) it was “Suspension”. Besides, the pH value in data set [1] (FaSSIF, 4 hours) is recorded as 3.15; in data set [1] (FaSSIF, 24 hours) it was 3.13; in data set [1] (FeSSIF, 4 hours), 1.89; in data set [1] (FeSSIF, 24 hours), 1.87; in data set [1] (SGF, 4 hours) it was 3.45; in data set [1] (SGF, 24 hours), 4.26. For the same compound, the solubility in data set [5] fell in the range of 49 to 98 mg/mL.
For `Cc1cccc(-c2nn3c(c2-c2ccc4ncnn4c2/C=C/C(N)=O)CCC3)n1.Cl` [Hydrochloride], the Concentration came out at 4378 µg/mL in data set [1] (FaSSIF, 4 hours); 4195 µg/mL in data set [1] (FaSSIF, 24 hours); 1028 µg/mL in data set [1] (FeSSIF, 4 hours); 1065 µg/mL in data set [1] (FeSSIF, 24 hours); 4343 µg/mL in data set [1] (SGF, 4 hours); 4427 µg/mL in data set [1] (SGF, 24 hours). Moreover, the State entry is “soluble” in data set [1] (FaSSIF, 4 hours); “soluble” in data set [1] (FaSSIF, 24 hours); “turbid” in data set [1] (FeSSIF, 4 hours); “turbid” in data set [1] (FeSSIF, 24 hours); “soluble” in data set [1] (SGF, 4 hours); “soluble” in data set [1] (SGF, 24 hours). In addition, the pH value amounted to 3.96 in data set [1] (FaSSIF, 4 hours); 3.97 in data set [1] (FaSSIF, 24 hours); 4.52 in data set [1] (FeSSIF, 4 hours); 4.52 in data set [1] (FeSSIF, 24 hours); 2.04 in data set [1] (SGF, 4 hours); 2.05 in data set [1] (SGF, 24 hours).
For the compound `Cc1cccc(-c2nn3c(c2-c2ccnc4ccc(C(N)=O)cc24)CCC3)n1` [LY2157299, Galunisertib], the “Patients with a decrease in serum alpha-fetoprotein (AFP) levels by at least 20%” value in data set [7] is reported as “approximately 23%”.
Turning to `Cc1cccc(-c2nn3c(c2-c2ccc4ncnn4c2/C=C/C(N)=O)CCC3)n1` [Sulphate], the Concentration in data set [1] (FaSSIF, 4 hours) came to 4998 µg/mL; in data set [1] (FaSSIF, 24 hours) it was 5000 µg/mL; in data set [1] (FeSSIF, 4 hours), 1530 µg/mL; in data set [1] (FeSSIF, 24 hours), 1504 µg/mL; in data set [1] (SGF, 4 hours) it was 4885 µg/mL; in data set [1] (SGF, 24 hours), 4952 µg/mL. For the same compound, the State entry in data set [1] (FaSSIF, 4 hours) was “soluble”; in data set [1] (FaSSIF, 24 hours) it was “soluble”; in data set [1] (FeSSIF, 4 hours), “turbid”; in data set [1] (FeSSIF, 24 hours), “turbid”; in data set [1] (SGF, 4 hours) it was “soluble”; in data set [1] (SGF, 24 hours) it was “soluble”. In addition, the pH value in data set [1] (FaSSIF, 4 hours) worked out at 2.44; in data set [1] (FaSSIF, 24 hours), 2.50; in data set [1] (FeSSIF, 4 hours), 4.22; in data set [1] (FeSSIF, 24 hours), 4.21; in data set [1] (SGF, 4 hours), 1.77; in data set [1] (SGF, 24 hours) it was 1.84.
